Measured values from ChEMBL document CHEMBL1146649, “New highly active taxoids from 9 beta-dihydrobaccatin-9,10-acetals. Part 5” (2004).
Converted amounts (≈) assume the structure as drawn.

Tests used:
[1] = system: PC-12; assay: Concentration required to inhibit human PC-12 cell line growth by 50% at 72 hr continuous exposure; type: functional; settings: PC-12, 72 h
[2] = system: PC-6; assay: Concentration required to inhibit human PC-6/VP1-1 cell line growth by 50% at 72 hr exposure; type: functional; settings: PC-6, 72 h
[3] = system: PC-6; assay: Concentration required to inhibit human PC-6/VCR29-9 cell line growth by 50% at 72 hr exposure; type: functional; settings: PC-6, 72 h
[4] = system: P388; assay: Concentration required to inhibit mouse P388 cell line growth by 50% at 72 hr continuous exposure; type: functional; settings: P388, 72 h
[5] = system: PC-6; assay: Concentration required to inhibit human PC-6 cell line growth by 50% at 72 hr continuous exposure; type: functional; settings: PC-6, 72 h
[6] = system: B16; assay: Effective dose of intravenously administered compound against B16 melanoma BL6 cells implanted into mice; type: functional; settings: Mus musculus, B16, iv
[7] = system: B16; assay: Effective dose of perorally administered compound against B16 melanoma BL6 cells implanted into mice; type: functional; settings: Mus musculus, B16, po
[8] = system: PC-6; assay: Concentration that inhibited the growth of PC-6/VCR29-9 cells by 50% at 72 hr continuous exposure; type: functional; settings: Homo sapiens, PC-6, 72 h
[9] = system: Mus musculus; assay: Antitumor activity of 7.9 mg/kg of intravenously administered compound against B16 melanoma BL6 cells implanted into mice, value reported is percent compared to control; type: functional; settings: route intravenous
[10] = system: Mus musculus; assay: Number of mice died at 7.9 mg/kg of intravenous dose of compound among the total 6 mice tested; type: functional
[11] = system: Mus musculus; assay: Effective dose of perorally administered compound against B16 melanoma BL6 cells implanted into mice; range is 7.9-17.8; type: functional; settings: B16, po
[12] = system: Mus musculus; assay: Number of mice died at 7.9 mg/kg of peroral dose of compound among the total 6 mice tested; type: functional; settings: route oral
[13] = system: B16; assay: Antitumor activity of 11.9 mg/kg of intravenously administered compound against B16 melanoma BL6 cells implanted into mice, value reported is percent compared to control; type: functional, Mus musculus; settings: route intravenous
[14] = system: Mus musculus; assay: Maximum rate of body weight loss after intravenous administration of 11.9 mg/kg of compound in mice; type: functional
[15] = system: Mus musculus; assay: Number of mice died at 26.7 mg/kg of intravenous dose of compound among the total 6 mice tested; type: functional
[16] = system: B16; assay: Antitumor activity of 17.8 mg/kg of perorally administered compound against B16 melanoma BL6 cells implanted into mice, value reported is percent compared to control; type: functional, Mus musculus; settings: route oral
[17] = system: B16; assay: Antitumor activity of 11.9 mg/kg of perorally administered compound against B16 melanoma BL6 cells implanted into mice, value reported is percent compared to control; type: functional, Mus musculus; settings: route oral
[18] = system: Mus musculus; assay: Maximum rate of body weight loss after peroral administration of 11.9 mg/kg of compound in mice; <0 indicates no body weight loss; type: functional; settings: route oral
[19] = system: Mus musculus; assay: Maximum rate of body weight loss after peroral administration of 17.8 mg/kg of compound in mice; type: functional; settings: route oral
[20] = system: Mus musculus; assay: Antitumor activity of 26.7 mg/kg of perorally administered compound against B16 melanoma BL6 cells implanted into mice, value reported is percent compared to control; type: functional; settings: route oral
[21] = system: Mus musculus; assay: Maximum rate of body weight loss after peroral administration of 7.9 mg/kg of compound in mice; <0 indicates no body weight loss; type: functional; settings: route oral
[22] = system: Mus musculus; assay: Number of mice died at 11.9 mg/kg of peroral dose, among the total 6 mice tested; type: functional; settings: route oral
[23] = system: Mus musculus; assay: Maximum rate of body weight loss after intravenous administration of 7.9 mg/kg of compound in mice; <0 indicates no weight loss; type: functional
[24] = system: Mus musculus; assay: Number of mice died at 11.9 mg/kg of intravenous dose, among the total 6 mice tested; type: functional
[25] = system: Mus musculus; assay: Antitumor activity of 7.9 mg/kg of perorally administered compound against B16 melanoma BL6 cells implanted into mice, value reported is percent compared to control; type: functional; settings: route oral
[26] = system: Mus musculus; assay: Number of mice died at 26.7 mg/kg of peroral dose of compound among the total 6 mice tested; type: functional; settings: route oral
[27] = system: Mus musculus; assay: Maximum rate of body weight loss after intravenous administration of 17.8 mg/kg of compound in mice; type: functional
[28] = system: Mus musculus; assay: Antitumor activity of 17.8 mg/kg of intravenously administered compound against B16 melanoma BL6 cells implanted into mice, value reported is percent compared to control; type: functional; settings: route intravenous
[29] = system: Mus musculus; assay: Maximum rate of body weight loss after peroral administration of 26.7 mg/kg of compound in mice; type: functional; settings: route oral
[30] = system: Mus musculus; assay: Number of mice died at 17.8 mg/kg of peroral dose among the total 6 mice tested; type: functional; settings: route oral
[31] = system: Mus musculus; assay: Effective dose of intravenously administered compound against B16 melanoma BL6 cells implanted into mice; range is 7.9-17.8; type: functional; settings: B16, iv
[32] = system: Mus musculus; assay: Number of mice died at 17.8 mg/kg of intravenous dose among the total 6 mice tested; type: functional
[33] = system: Mus musculus; assay: Number of mice died at 40.0 mg/kg of peroral dose of compound among the total 6 mice tested; type: functional; settings: route oral
[34] = system: Mus musculus; assay: Maximum rate of body weight loss after intravenous administration of 26.7 mg/kg of compound in mice; type: functional
[35] = system: Mus musculus; assay: Effective dose of perorally administered compound against B16 melanoma BL6 cells implanted into mice; range is 11.9-26.7; type: functional; settings: B16, po
[36] = system: Mus musculus; assay: Maximum rate of body weight loss after peroral administration of 11.9 mg/kg of compound in mice; <0 indicates no weight loss; type: functional; settings: route oral
[37] = system: Mus musculus; assay: Maximum rate of body weight loss after intravenous administration of 7.9 mg/kg of compound in mice; type: functional
[38] = system: Mus musculus; assay: Antitumor activity of 26.7 mg/kg of intravenously administered compound against B16 melanoma BL6 cells implanted into mice, value reported is percent compared to control; type: functional; settings: route intravenous
[39] = system: Mus musculus; assay: Maximum rate of body weight loss after intravenous administration of 11.9 mg/kg of compound in mice; <0 indicates no weight loss; type: functional
[40] = system: PC-6; assay: Concentration required to inhibit human PC-6/VCR29-9 cell line growth by 50% at 72 hr of exposure; type: functional; settings: PC-6, 72 h

CNC[C@@H]1O[C@@H]2C3=C(C)[C@@H](OC(=O)[C@H](O)[C@@H](NC(=O)OC(C)(C)C)c4ccccn4)C[C@@](O)([C@@H](OCc4ccccc4)[C@H]4[C@@](C)(CC[C@H]5OC[C@]54OC(C)=O)[C@@H]2O1)C3(C)C
GI50 [1]: 5.82 ng/mL (≈ 6.96 nM)
GI50 [2]: 265 ng/mL (≈ 317 nM)
GI50 [3]: 43.2 ng/mL (≈ 51.7 nM)
GI50 [4]: 0.6 ng/mL (≈ 0.718 nM)
GI50 [5]: 0.54 ng/mL (≈ 0.646 nM)

CC(=O)O[C@@]12CO[C@@H]1CC[C@@]1(C)[C@@H]3O[C@H](CNC4CC4)O[C@@H]3C3=C(C)[C@@H](OC(=O)[C@H](O)[C@@H](NC(=O)OC(C)(C)C)c4nccs4)C[C@@](O)([C@@H](OCc4ccccc4)[C@@H]12)C3(C)C
GI50 [1]: 0.12 ng/mL (≈ 0.138 nM)
GI50 [2]: 39.4 ng/mL (≈ 45.4 nM)
GI50 [3]: 1.16 ng/mL (≈ 1.34 nM)
GI50 [4]: 0.06 ng/mL (≈ 0.0691 nM)
GI50 [5]: 0.42 ng/mL (≈ 0.484 nM)

COc1ccc([C@H](NC(=O)OC(C)(C)C)[C@@H](O)C(=O)O[C@H]2C[C@@]3(O)[C@@H](OCc4ccccc4)[C@H]4[C@@](C)(CC[C@H]5OC[C@]54OC(C)=O)[C@@H]4O[C@H](CN5CCOCC5)O[C@@H]4C(=C2C)C3(C)C)nc1
ED50 [6]: 5.9 mg/kg
ED50 [7]: 13.3 mg/kg

CC(=O)O[C@@]12CO[C@@H]1CC[C@@]1(C)[C@@H]3O[C@H](CN(C)C)O[C@@H]3C3=C(C)[C@@H](OC(=O)[C@H](O)[C@@H](NC(=O)OC(C)(C)C)c4cscn4)C[C@@](O)([C@@H](OCc4ccccc4)[C@@H]12)C3(C)C
GI50 [1]: 0.19 ng/mL (≈ 0.222 nM)
GI50 [2]: 17.3 ng/mL (≈ 20.2 nM)
GI50 [8]: 1.1 ng/mL (≈ 1.28 nM)
GI50 [4]: 0.06 ng/mL (≈ 0.0701 nM)
GI50 [5]: 0.35 ng/mL (≈ 0.409 nM)

CC(=O)O[C@@]12CO[C@@H]1CC[C@@]1(C)[C@@H]3O[C@H](CN(C)C)O[C@@H]3C3=C(C)[C@@H](OC(=O)[C@H](O)[C@@H](NC(=O)OC(C)(C)C)c4ccccn4)C[C@@](O)([C@@H](OCc4ccccc4)[C@@H]12)C3(C)C
IR [9]: 82.3%
Mortality [10]: 0
GI50 [1]: 0.74 ng/mL (≈ 0.871 nM)
ED50 [11]: 17.8 mg/kg
Mortality [12]: 0
IR [13]: 95%
BWLmax [14]: 1%
Mortality [15]: 6
IR [16]: 97%
IR [17]: 88.8%
BWLmax [18]: <0%
BWLmax [19]: 8.8%
IR [20]: 97.5%
BWLmax [21]: <0%
Mortality [22]: 0
GI50 [2]: 54.2 ng/mL (≈ 63.8 nM)
GI50 [3]: 4.04 ng/mL (≈ 4.75 nM)
BWLmax [23]: <0%
Mortality [24]: 0
GI50 [4]: 0.41 ng/mL (≈ 0.482 nM)
IR [25]: 72.8%
Mortality [26]: 1
BWLmax [27]: 8.6%
IR [28]: 97.7%
BWLmax [29]: 13.1%
Mortality [30]: 0
ED50 [31]: 17.8 mg/kg
GI50 [5]: 0.38 ng/mL (≈ 0.447 nM)
Mortality [32]: 0

CC(=O)O[C@@]12CO[C@@H]1CC[C@@]1(C)[C@@H]3O[C@H](CN4CCOCC4)O[C@@H]3C3=C(C)[C@@H](OC(=O)[C@H](O)[C@@H](NC(=O)OC(C)(C)C)c4nccs4)C[C@@](O)([C@@H](OCc4ccccc4)[C@@H]12)C3(C)C
IR [9]: 79.1%
Mortality [10]: 0
Mortality [33]: 6
GI50 [1]: 0.13 ng/mL (≈ 0.145 nM)
BWLmax [34]: 15%
IR [13]: 85.7%
Mortality [15]: 2
IR [16]: 97%
IR [17]: 77.9%
BWLmax [19]: 8.8%
IR [20]: 97.8%
Mortality [22]: 0
GI50 [2]: 19.7 ng/mL (≈ 21.9 nM)
ED50 [35]: 26.7 mg/kg
GI50 [3]: 1.37 ng/mL (≈ 1.53 nM)
Mortality [24]: 0
GI50 [4]: 0.06 ng/mL (≈ 0.0668 nM)
Mortality [26]: 0
BWLmax [27]: 7.1%
BWLmax [36]: <0%
IR [28]: 96.9%
BWLmax [29]: 10%
BWLmax [37]: 1.5%
IR [38]: 98.3%
Mortality [30]: 0
ED50 [31]: 17.8 mg/kg
GI50 [5]: 0.12 ng/mL (≈ 0.134 nM)
BWLmax [39]: <0%
Mortality [32]: 0

CC(=O)O[C@H]1C(=O)[C@@]2(C)[C@H]([C@H](OCc3ccccc3)[C@]3(O)C[C@H](OC(=O)[C@H](O)[C@@H](NC(=O)c4ccccc4)c4ccccc4)C(C)=C1C3(C)C)[C@]1(OC(C)=O)CO[C@@H]1C[C@@H]2O
GI50 [1]: 539 ng/mL (≈ 642 nM)
GI50 [2]: 1000 ng/mL (≈ 1190 nM)
GI50 [4]: 2.93 ng/mL (≈ 3.49 nM)
GI50 [40]: 455 ng/mL (≈ 542 nM)
GI50 [5]: 1.27 ng/mL (≈ 1.51 nM)
